The source made the active and inactive calls. No cut-off for these calls is given here.
Tests used:
RAW264.7 [1] = assay: Antiinflammatory activity in LPS-induced mouse RAW264.7 cells assessed as inhibition of Il6 mRNA expression at 10 uM preincubated for 3 hrs followed by LPS stimulation and measured after 6 hrs by RT-PCR analysis; format: functional, cell-based; conditions: time 9.0 hrs
RAW264.7 [2] = assay: Antiinflammatory activity in LPS-induced mouse RAW264.7 cells assessed as inhibition of Tnf mRNA expression at 10 uM preincubated for 3 hrs followed by LPS stimulation and measured after 6 hrs by RT-PCR analysis; format: functional, cell-based; conditions: time 9.0 hrs
[3] = Cytotoxicity against mouse BMDM cells at <20 uM measured after 48 to 96 hrs by CCK-8 method; format: toxicity, cell-based; conditions: time 48-96 hrs
BMDM [4] = assay: Anti-osteoclastogenesis activity in RANKL-induced mouse BMDM cells assessed as reduction in TRAP-positive area at 10 uM measured after 4 days by TRAP staining based analysis; format: functional, cell-based; conditions: time 4.0 day
BMDM [5] = assay: Anti-osteoclastogenesis activity in RANKL-induced mouse BMDM cells assessed as reduction in number of TRAP-positive cells at 10 uM measured after 4 days by TRAP staining based analysis; format: functional, cell-based; conditions: time 4.0 day
BMDM [6] = assay: Anti-osteoclastogenesis activity in RANKL-induced mouse BMDM cells assessed as downregulation of Acp mRNA expression at 10 uM measured after 4 days by RT-PCR analysis; format: functional, cell-based; conditions: time 4.0 day
BMDM [7] = assay: Anti-osteoclastogenesis activity in RANKL-induced mouse BMDM cells assessed as downregulation of Fos mRNA expression at 10 uM measured after 4 days by RT-PCR analysis; format: functional, cell-based; conditions: time 4.0 day
BMDM [8] = assay: Anti-osteoclastogenesis activity in RANKL-induced mouse BMDM cells assessed as downregulation of Ctsk-mRNA expression at 10 uM measured after 4 days by RT-PCR analysis; format: functional, cell-based; conditions: time 4.0 day
BMDM [9] = assay: Anti-osteoclastogenesis activity in RANKL-induced mouse BMDM cells assessed as downregulation of TRAP mRNA expression at 10 uM measured after 4 days by RT-PCR analysis; format: functional, cell-based; conditions: time 4.0 day
[10] = Drug uptake in male C57BL/6J mouse serum assessed as increase in acacetin level at 93.6 mg/kg, ip measured after 10 mins; format: ADME, organism-based; conditions: in vivo
Mus musculus [11] = assay: Anti-osteoporosis activity LPS induced male C57BL/6J mouse model assessed as increase in trabecular bone volume fraction in femur at 9.36 mg/kg measured every 2 days for 12 day by Micro-CT 3D scanning method; format: functional, organism-based
Mus musculus [12] = assay: Anti-osteoporosis activity LPS induced male C57BL/6J mouse model assessed as increase in trabecular number in femur at 9.36 mg/kg measured every 2 days for 12 day by Micro-CT 3D scanning method; format: functional, organism-based
Mus musculus [13] = organism: Mus musculus; assay: Anti-osteoporosis activity LPS induced male C57BL/6J mouse model assessed as increase in density of cancellous bone trabeculae in femur by H and E staining based analysis; format: functional, organism-based
Mus musculus [14] = organism: Mus musculus; assay: Anti-osteoporosis activity LPS induced male C57BL/6J mouse model assessed as attenuation of number of osteoclast per unit of trabecular bone area by TRAP staining based analysis; format: functional, organism-based
Mus musculus [15] = organism: Mus musculus; assay: Anti-osteoporosis activity LPS induced male C57BL/6J mouse model assessed as reduction of CTX-I level by ELISA method; format: functional, organism-based
Mus musculus [16] = assay: Anti-osteoporosis activity in OVX-induced […] C57BL/6J mouse model assessed as improvement in BMD in femur at 9.36 mg/kg measured every three days for 7 weeks by Micro-CT 3D scanning analysis; format: functional, organism-based
Mus musculus [17] = assay: Anti-osteoporosis activity in OVX-induced […] C57BL/6J mouse model assessed as improvement in trabecular bone volume fraction in femur at 9.36 mg/kg measured every three days for 7 weeks by Micro-CT 3D scanning analysis; format: functional, organism-based
Mus musculus [18] = assay: Anti-osteoporosis activity in OVX-induced […] C57BL/6J mouse model assessed as improvement in trabecular thickness in femur at 9.36 mg/kg measured every three days for 7 weeks by Micro-CT 3D scanning analysis; format: functional, organism-based
Mus musculus [19] = assay: Anti-osteoporosis activity in OVX-induced […] C57BL/6J mouse model assessed as improvement in trabecular number in femur at 9.36 mg/kg measured every three days for 7 weeks by Micro-CT 3D scanning analysis; format: functional, organism-based
Mus musculus [20] = organism: Mus musculus; assay: Anti-osteoporosis activity OVX-induced […] C57BL/6J mouse model assessed as reduction of trabecular bone in femur by H and E staining based analysis; format: functional, organism-based
Mus musculus [21] = organism: Mus musculus; assay: Anti-osteoporosis activity OVX-induced […] C57BL/6J mouse model assessed as attenuation of number of osteoclast by TRAP staining based analysis; format: functional, organism-based
Mus musculus [22] = organism: Mus musculus; assay: Anti-osteoporosis activity OVX-induced […] C57BL/6J mouse model assessed as reduction of CTX-I level by ELISA method; format: functional, organism-based
[23] = Drug uptake in male C57BL/6J mouse serum assessed as increase in acacetin level at 50 mg/kg, ip measured after 10 mins; format: ADME, organism-based; conditions: in vivo
Mus musculus [24] = assay: Anti-osteoporosis activity LPS induced male C57BL/6J mouse model assessed as increase in BMD in femur at 5 mg/kg measured every 2 days for 12 day by Micro-CT 3D scanning method; format: functional, organism-based
Mus musculus [25] = assay: Anti-osteoporosis activity LPS induced male C57BL/6J mouse model assessed as increase in trabecular bone volume fraction in femur at 5 mg/kg measured every 2 days for 12 day by Micro-CT 3D scanning method; format: functional, organism-based
Mus musculus [26] = assay: Anti-osteoporosis activity LPS induced male C57BL/6J mouse model assessed as increase in trabecular thickness in femur at 5 mg/kg measured every 2 days for 12 day by Micro-CT 3D scanning method; format: functional, organism-based
Mus musculus [27] = assay: Anti-osteoporosis activity LPS induced male C57BL/6J mouse model assessed as increase in trabecular number in femur at 5 mg/kg measured every 2 days for 12 day by Micro-CT 3D scanning method; format: functional, organism-based
Mus musculus [28] = assay: Anti-osteoporosis activity in OVX-induced […] C57BL/6J mouse model assessed as improvement in BMD in femur at 5 mg/kg measured every three days for 7 weeks by Micro-CT 3D scanning analysis; format: functional, organism-based
Mus musculus [29] = assay: Anti-osteoporosis activity in OVX-induced […] C57BL/6J mouse model assessed as improvement in trabecular bone volume fraction in femur at 5 mg/kg measured every three days for 7 weeks by Micro-CT 3D scanning analysis; format: functional, organism-based
Mus musculus [30] = assay: Anti-osteoporosis activity in OVX-induced […] C57BL/6J mouse model assessed as improvement in trabecular thickness in femur at 5 mg/kg measured every three days for 7 weeks by Micro-CT 3D scanning analysis; format: functional, organism-based
Mus musculus [31] = assay: Anti-osteoporosis activity in OVX-induced […] C57BL/6J mouse model assessed as improvement in trabecular number in femur at 5 mg/kg measured every three days for 7 weeks by Micro-CT 3D scanning analysis; format: functional, organism-based

Structure (SMILES): COCCOCCOCCOCCOCC(=O)Oc1cc(O)c2c(=O)cc(-c3ccc(OC)cc3)oc2c1
- Activity (RAW264.7 [1]): Active
- Activity (RAW264.7 [2]): Active
- Activity [3]: Non-Toxic
- Activity (BMDM [4]): Active
- Activity (BMDM [5]): Active
- Activity (BMDM [6]): Active
- Activity (BMDM [7]): Active
- Activity (BMDM [8]): Active
- Activity (BMDM [9]): Active
- Drug uptake [10]: 3528.82 ng/mL
- Activity (Mus musculus [11]): Active
- Activity (Mus musculus [12]): Active
- Activity (Mus musculus [13]): Active
- Activity (Mus musculus [14]): Active
- Activity (Mus musculus [15]): Active
- Activity (Mus musculus [16]): Active
- Activity (Mus musculus [17]): Active
- Activity (Mus musculus [18]): Active
- Activity (Mus musculus [19]): Active
- Activity (Mus musculus [20]): Active
- Activity (Mus musculus [21]): Active
- Activity (Mus musculus [22]): Active

Structure (SMILES): COc1ccc(-c2cc(=O)c3c(O)cc(O)cc3o2)cc1 [ACACETIN]
- Activity [3]: Non-Toxic
- Activity (BMDM [4]): Active
- Activity (BMDM [5]): Active
- Activity (BMDM [6]): Active
- Activity (BMDM [7]): Active
- Activity (BMDM [8]): Active
- Activity (BMDM [9]): Active
- Drug uptake [23]: 489.59 ng/mL
- Activity (Mus musculus [24]): Active
- Activity (Mus musculus [25]): Active
- Activity (Mus musculus [26]): Active
- Activity (Mus musculus [27]): Active
- Activity (Mus musculus [13]): Active
- Activity (Mus musculus [14]): Active
- Activity (Mus musculus [28]): Active
- Activity (Mus musculus [29]): Active
- Activity (Mus musculus [30]): Active
- Activity (Mus musculus [31]): Active
- Activity (Mus musculus [20]): Active
- Activity (Mus musculus [21]): Active

Reference: ChEMBL document CHEMBL6127066, “Pegylation enhances the anti-osteoporosis activity of acacetin in both ovariectomized and LPS-stimulated mice” (Bioorg Med Chem, 2024)
